# Source: patent US7968526B2, “Antisense oligonucleotides directed to ribonucleotide reductase R2 and uses thereof in the treatment of cancer” (Lorus Therapeutics Inc., priority 2003, dated 2011)
# “Also recorded” adds a separate entry of the source.
# System: A498 human kidney cancer cells
# Test: A498 kidney tumour xenograft in SCID mice, controls and chemotherapeutics (Example 7)
# Assay type: in vivo, human cells in mice
# Conditions: oligonucleotides 10 mg/kg/2 days i.v., 5-FU 13 mg/kg/day×5, vinblastine 1 mg/kg/week, gemcitabine 100 mg/kg/week
# Description: CD-1 athymic female nude mice, BALB/c nu/nu nude mice, SCID, and SCID beige mice were purchased from Charles River Laboratories (Montreal, Canada) and experiments were typically initiated when the mice were 6-7 weeks old. […] Each experimental group typically contained 10 mice. After the size of tumour reached a mean tumour volume of 50-100 mm^3, treatment was initiated. […] Anti-tumour activity was estimated by the measurement of tumour volume with a calliper at two-three day intervals. Tumour volume was calculated by a formula L×W×H/2, where L indicates length, W indicates width and H indicates height. Within 24 hours after the last treatment, the animals were sacrificed and tumour and body weights were measured. Results of statistical analyses of the data are presented as P values in the figure legends.
# Three additional treatment groups received: 5-FU (13 mg/kg/day×5), vinblastine (1 mg/kg/week) and gemcitabine (100 mg/kg/week). […] Caliper measurements at 1-week intervals were used to calculate tumour volumes. Each point in FIG. 28C represents mean tumour volume calculated from 10 animals per experimental group (with the exception of SEQ ID NO: 1 which was 8 animals). […] After 54 days the mice were sacrificed and the A498 tumours weighed. Each bar represents the mean tumour weight and standard error calculated for each treatment group.
substance,measurement,value
"5′-GGCTAAATCGCTCCACCAAG-3′ (all phosphorothioate, sugars by position and methylation of C not given here) [SEQ ID NO: 1, fully phosphorothioated antisense oligonucleotide that hybridizes to the coding region of R2 mRNA]",Effect on tumour growth (volume and weight),dramatic inhibition in growth of Caki-1 and A498 renal tumours; also recorded: superior to any of these compounds
